Test results reported in ChEMBL document CHEMBL1201862, “PubChem BioAssay data set” (2004).
Calls of active or inactive are those of the source.

Assays:
[1] = test system: HT-1080; experiment: cytotoxicity in HT1080 fibrosarcoma cells, cell-based, fluorescence readout (AID 620); assay type: functional; conditions: Homo sapiens
[2] = biological target: Luciferin 4-monooxygenase (Photinus pyralis, UniProt P08659); experiment: Counter Screen for Luciferase-based Assay Positives. [Related pubchem assays: 620, 618, 411 ]
Sequence of Luciferin 4-monooxygenase (P08659 whole entry): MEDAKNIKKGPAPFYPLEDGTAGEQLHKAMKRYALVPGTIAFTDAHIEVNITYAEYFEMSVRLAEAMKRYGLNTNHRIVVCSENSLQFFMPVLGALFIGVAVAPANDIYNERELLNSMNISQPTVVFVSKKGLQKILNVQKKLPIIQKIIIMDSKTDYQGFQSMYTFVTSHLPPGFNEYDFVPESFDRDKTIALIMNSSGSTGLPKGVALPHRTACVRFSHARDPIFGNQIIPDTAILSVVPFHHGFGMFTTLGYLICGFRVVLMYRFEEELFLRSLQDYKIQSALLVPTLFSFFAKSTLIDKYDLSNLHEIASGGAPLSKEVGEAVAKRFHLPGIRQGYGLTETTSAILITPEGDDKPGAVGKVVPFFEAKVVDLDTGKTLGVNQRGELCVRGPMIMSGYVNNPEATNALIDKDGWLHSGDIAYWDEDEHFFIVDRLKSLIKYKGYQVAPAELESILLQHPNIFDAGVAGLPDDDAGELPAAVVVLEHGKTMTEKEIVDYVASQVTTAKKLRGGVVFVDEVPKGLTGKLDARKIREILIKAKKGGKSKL

[3] = biological target: T1, Epstein-Barr nuclear antigen 1 (Epstein-Barr virus (strain B95-8) (HHV-4) (Human herpesvirus 4), UniProt P03211); experiment: EBNA-1 inhibitors, dose response, biochemical, fluorescence polarization, 1536-well (AID 2381); design: species or system human gammaherpesvirus 4;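 also: fluorescence polarization of a Cy5 DNA probe bound by EBNA-1 protein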
T1 sequence (P03211 whole entry): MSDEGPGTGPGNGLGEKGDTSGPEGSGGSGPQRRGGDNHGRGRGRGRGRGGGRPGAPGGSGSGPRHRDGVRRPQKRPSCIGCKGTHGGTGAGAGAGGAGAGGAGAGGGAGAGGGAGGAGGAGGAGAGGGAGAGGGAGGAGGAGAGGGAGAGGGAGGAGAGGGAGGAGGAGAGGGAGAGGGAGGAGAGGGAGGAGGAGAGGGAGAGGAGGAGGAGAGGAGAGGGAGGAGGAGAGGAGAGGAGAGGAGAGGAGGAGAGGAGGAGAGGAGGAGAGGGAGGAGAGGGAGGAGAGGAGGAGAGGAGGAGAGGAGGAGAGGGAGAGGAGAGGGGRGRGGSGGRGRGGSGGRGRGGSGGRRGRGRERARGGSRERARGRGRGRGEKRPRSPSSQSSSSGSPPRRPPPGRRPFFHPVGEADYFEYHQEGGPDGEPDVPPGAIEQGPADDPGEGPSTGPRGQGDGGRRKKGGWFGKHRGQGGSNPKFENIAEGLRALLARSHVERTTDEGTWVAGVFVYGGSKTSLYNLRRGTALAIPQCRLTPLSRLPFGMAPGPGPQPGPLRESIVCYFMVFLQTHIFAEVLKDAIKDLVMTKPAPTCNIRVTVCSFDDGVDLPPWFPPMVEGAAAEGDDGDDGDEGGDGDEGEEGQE

[4] = biological target: T2, Lytic switch protein BZLF1 (Epstein-Barr virus (strain B95-8) (HHV-4) (Human herpesvirus 4), UniProt P03206); experiment: EBV ZTA inhibitors, dose response, counter-screen for EBNA-1 inhibitor project, biochemical, fluorescence polarization, Epstein-Barr virus, 1536-well (AID 2377); design: species or system human gammaherpesvirus 4;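 also: fluorescence polarization of Cy5-labelled ZRE DNA probe bound by purified Zta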
T2 sequence (P03206 whole entry): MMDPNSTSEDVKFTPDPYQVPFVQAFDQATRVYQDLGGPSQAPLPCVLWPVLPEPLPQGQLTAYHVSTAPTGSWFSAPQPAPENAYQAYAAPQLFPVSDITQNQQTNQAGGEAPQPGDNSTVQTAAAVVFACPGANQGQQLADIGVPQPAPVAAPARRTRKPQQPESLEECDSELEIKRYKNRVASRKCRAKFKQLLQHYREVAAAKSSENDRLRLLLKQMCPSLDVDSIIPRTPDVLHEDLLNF

[5] = biological target: Neurotensin receptor type 1 (Homo sapiens, UniProt P30989); assay type: functional;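 also: Image-based confirmatory dose-response assay measuring agonist activity at NTR1; NTR1-expressing U2OS osteosarcoma cells imaged for beta-arrestin GFP spot formation; agonist potency where compounds increase beta-arrestin recruitment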
Sequence of Neurotensin receptor type 1 (P30989 whole entry): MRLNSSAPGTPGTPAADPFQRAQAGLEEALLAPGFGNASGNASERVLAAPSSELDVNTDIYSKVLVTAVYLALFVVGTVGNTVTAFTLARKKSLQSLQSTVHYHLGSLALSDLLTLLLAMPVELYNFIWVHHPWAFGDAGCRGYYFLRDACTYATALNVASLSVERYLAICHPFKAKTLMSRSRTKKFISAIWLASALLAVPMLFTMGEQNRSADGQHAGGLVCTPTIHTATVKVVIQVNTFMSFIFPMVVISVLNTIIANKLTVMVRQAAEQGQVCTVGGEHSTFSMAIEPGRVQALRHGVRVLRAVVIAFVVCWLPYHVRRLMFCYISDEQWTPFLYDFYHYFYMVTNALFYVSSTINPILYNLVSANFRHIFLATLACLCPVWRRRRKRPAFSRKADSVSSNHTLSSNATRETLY

[6] = biological target: Voltage-dependent T-type calcium channel subunit alpha-1H (Homo sapiens, UniProt O95180); assay type: functional;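 also: channel activity triggered by adding a high calcium stimulation buffer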
Sequence of Voltage-dependent T-type calcium channel subunit alpha-1H (O95180 whole entry): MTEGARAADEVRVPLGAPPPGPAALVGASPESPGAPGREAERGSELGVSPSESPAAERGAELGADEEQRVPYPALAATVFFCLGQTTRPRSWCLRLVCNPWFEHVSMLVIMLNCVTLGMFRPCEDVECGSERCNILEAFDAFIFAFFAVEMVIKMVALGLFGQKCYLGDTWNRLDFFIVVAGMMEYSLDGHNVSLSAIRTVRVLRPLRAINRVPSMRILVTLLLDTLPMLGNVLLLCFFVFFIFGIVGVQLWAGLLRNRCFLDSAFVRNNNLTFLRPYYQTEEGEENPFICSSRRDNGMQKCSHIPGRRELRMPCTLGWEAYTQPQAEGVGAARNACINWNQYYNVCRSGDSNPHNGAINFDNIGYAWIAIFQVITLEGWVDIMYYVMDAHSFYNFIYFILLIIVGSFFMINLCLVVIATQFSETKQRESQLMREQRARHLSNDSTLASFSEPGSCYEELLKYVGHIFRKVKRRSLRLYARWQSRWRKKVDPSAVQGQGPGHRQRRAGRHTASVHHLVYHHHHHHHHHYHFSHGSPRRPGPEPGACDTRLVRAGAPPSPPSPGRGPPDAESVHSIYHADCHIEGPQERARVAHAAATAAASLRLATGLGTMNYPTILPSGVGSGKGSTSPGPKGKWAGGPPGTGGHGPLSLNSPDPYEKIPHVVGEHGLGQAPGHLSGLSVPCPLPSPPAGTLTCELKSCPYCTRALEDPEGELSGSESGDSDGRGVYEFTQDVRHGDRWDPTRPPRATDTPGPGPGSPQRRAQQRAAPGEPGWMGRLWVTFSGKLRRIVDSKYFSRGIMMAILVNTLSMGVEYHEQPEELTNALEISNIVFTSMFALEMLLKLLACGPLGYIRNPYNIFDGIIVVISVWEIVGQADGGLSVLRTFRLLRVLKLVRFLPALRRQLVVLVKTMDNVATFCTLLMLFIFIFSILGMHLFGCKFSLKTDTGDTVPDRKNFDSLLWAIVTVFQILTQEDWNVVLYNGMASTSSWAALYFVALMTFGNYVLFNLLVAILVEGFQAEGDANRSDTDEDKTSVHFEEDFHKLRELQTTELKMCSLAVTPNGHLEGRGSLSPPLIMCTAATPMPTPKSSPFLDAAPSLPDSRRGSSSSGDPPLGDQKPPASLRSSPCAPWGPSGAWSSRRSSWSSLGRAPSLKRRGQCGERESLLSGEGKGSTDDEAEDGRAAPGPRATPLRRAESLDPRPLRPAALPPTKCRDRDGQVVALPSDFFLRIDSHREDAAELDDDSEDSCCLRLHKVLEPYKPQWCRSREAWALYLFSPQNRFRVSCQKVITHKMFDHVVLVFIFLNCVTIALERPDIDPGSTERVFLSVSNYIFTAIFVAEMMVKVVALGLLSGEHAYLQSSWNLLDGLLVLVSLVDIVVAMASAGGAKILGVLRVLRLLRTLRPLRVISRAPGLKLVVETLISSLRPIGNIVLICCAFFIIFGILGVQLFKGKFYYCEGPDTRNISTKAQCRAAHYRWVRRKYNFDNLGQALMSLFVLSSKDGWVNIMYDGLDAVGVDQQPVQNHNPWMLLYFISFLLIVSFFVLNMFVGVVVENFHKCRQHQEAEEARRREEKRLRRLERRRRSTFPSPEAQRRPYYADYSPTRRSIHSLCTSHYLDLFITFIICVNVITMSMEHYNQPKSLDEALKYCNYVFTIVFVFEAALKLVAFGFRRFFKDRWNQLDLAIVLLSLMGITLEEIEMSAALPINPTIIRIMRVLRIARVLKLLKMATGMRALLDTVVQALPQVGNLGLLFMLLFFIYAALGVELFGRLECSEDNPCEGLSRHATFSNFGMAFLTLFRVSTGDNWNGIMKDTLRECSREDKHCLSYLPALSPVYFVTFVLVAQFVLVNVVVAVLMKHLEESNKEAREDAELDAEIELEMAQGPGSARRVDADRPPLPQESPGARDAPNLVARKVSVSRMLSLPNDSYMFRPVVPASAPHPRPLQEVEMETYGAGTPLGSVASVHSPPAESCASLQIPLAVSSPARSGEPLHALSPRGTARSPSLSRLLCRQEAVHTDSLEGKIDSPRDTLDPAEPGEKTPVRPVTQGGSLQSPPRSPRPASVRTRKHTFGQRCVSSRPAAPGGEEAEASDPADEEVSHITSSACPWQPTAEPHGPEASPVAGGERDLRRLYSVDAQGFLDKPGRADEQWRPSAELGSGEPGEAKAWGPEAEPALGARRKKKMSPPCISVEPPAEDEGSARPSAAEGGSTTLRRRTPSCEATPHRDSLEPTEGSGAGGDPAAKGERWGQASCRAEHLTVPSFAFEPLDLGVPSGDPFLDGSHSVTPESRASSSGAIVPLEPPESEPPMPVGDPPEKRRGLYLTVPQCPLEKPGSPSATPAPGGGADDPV

[7] = biological target: T3, Coagulation factor XII (Homo sapiens, UniProt P00748); assay type: functional;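 also: activated factor XIIa alpha cleaving a fluorogenic AMC peptide substrate; inhibitor potency from loss of enzyme activity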
T3 sequence (P00748 whole entry): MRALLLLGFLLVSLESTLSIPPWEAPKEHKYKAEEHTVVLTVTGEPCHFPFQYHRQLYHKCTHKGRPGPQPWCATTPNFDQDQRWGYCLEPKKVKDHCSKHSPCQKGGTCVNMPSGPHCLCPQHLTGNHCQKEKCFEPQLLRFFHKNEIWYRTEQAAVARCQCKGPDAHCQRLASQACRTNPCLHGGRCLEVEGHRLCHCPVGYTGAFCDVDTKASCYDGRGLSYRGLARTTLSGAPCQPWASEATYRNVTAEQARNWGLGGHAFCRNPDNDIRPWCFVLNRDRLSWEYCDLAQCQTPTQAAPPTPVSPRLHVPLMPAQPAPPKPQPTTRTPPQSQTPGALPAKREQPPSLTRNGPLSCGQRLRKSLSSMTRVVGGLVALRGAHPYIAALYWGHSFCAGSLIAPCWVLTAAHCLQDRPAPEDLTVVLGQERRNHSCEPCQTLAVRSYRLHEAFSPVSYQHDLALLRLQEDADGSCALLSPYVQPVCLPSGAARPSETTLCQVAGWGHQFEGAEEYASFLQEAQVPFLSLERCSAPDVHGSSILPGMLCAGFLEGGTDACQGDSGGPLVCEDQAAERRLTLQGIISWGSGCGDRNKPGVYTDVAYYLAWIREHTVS

[8] = A Cell Based Secondary Assay To Explore Cytotoxicity of Compounds that Sensitize Mycobacterium Tuberculosis to Beta-Lactam Antibiotics.; assay type: functional
[9] = biological target: Polyadenylate-binding protein 1 (Homo sapiens, UniProt P11940); experiment: PABP poly(A) RNA binding inhibitors, primary screen, biochemical, fluorescence polarization, uHTS (AID 2014)
Sequence of Polyadenylate-binding protein 1 (P11940 whole entry): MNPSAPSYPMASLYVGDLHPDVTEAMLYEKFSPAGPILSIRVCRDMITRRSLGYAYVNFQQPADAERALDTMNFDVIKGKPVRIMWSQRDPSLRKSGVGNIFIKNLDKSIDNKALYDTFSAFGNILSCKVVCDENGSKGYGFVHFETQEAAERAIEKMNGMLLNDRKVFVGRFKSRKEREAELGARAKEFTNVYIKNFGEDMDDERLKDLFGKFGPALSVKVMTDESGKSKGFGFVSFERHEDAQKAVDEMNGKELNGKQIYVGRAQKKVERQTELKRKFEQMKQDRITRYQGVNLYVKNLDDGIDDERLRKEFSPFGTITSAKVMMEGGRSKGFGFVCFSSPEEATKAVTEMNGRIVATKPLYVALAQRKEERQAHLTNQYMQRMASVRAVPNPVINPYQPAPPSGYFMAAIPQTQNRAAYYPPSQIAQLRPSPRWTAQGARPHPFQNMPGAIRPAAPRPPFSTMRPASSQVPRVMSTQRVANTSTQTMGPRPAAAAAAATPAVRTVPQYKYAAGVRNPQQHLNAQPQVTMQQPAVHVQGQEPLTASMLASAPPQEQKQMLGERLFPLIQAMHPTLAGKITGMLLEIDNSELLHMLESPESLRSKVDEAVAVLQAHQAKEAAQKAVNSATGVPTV

[10] = biological target: T4, Zinc finger protein mex-5 (Caenorhabditis elegans, UniProt Q9XUB2); experiment: MEX-5/TCR-2 RNA interaction inhibitors, dose response, biochemical, C. elegans, fluorescence polarization (AID 1960)
T4 sequence (Q9XUB2 whole entry): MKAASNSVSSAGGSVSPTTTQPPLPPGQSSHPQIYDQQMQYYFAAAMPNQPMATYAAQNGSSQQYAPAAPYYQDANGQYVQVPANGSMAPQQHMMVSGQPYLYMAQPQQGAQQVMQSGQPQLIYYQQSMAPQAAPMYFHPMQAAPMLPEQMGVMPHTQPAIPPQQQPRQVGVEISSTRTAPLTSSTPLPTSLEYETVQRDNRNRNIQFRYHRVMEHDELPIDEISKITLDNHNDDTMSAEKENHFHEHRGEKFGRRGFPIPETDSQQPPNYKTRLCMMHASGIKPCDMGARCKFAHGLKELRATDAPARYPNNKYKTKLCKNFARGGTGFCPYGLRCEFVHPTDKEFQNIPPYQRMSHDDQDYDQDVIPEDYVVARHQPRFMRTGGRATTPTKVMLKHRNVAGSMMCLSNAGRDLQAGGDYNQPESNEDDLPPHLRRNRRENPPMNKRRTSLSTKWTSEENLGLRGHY

[11] = biological target: T5, RNA-binding protein pos-1 (Caenorhabditis elegans, UniProt G5EF15); experiment: inhibitors of POS-1/mex-3 RNA binding, dose response, biochemical, fluorescence polarization (AID 1964);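 also: purified POS-1 fused to maltose binding protein made in E. coli; potency of compounds blocking POS-1 binding to fluorescent RNA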
T5 sequence (G5EF15 whole entry): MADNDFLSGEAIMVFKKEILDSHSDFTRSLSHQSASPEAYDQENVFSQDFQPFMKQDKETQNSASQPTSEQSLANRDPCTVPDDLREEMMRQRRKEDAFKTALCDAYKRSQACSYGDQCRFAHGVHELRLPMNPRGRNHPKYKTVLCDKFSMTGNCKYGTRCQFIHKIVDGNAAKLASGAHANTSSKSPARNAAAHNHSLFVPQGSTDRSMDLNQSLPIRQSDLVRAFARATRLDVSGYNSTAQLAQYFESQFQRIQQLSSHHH

[12] = biological target: Eukaryotic translation initiation factor 4H (Homo sapiens, UniProt Q15056); experiment: human eIF4H binding inhibitors, primary screen, translation initiation inhibitor project, biochemical, uHTS, fluorescence polarization (AID 2012)
[13] = biological target: T6, Aminopeptidase N (Plasmodium falciparum FcB1/Columbia, UniProt O96935); experiment: P. falciparum M1AAP inhibitors, biochemical, fluorogenic H-Leu-NHMec substrate, 1536-well (AID 1445); design: species or system Plasmodium falciparum 3D7, 3D7
T6 sequence (O96935 whole entry): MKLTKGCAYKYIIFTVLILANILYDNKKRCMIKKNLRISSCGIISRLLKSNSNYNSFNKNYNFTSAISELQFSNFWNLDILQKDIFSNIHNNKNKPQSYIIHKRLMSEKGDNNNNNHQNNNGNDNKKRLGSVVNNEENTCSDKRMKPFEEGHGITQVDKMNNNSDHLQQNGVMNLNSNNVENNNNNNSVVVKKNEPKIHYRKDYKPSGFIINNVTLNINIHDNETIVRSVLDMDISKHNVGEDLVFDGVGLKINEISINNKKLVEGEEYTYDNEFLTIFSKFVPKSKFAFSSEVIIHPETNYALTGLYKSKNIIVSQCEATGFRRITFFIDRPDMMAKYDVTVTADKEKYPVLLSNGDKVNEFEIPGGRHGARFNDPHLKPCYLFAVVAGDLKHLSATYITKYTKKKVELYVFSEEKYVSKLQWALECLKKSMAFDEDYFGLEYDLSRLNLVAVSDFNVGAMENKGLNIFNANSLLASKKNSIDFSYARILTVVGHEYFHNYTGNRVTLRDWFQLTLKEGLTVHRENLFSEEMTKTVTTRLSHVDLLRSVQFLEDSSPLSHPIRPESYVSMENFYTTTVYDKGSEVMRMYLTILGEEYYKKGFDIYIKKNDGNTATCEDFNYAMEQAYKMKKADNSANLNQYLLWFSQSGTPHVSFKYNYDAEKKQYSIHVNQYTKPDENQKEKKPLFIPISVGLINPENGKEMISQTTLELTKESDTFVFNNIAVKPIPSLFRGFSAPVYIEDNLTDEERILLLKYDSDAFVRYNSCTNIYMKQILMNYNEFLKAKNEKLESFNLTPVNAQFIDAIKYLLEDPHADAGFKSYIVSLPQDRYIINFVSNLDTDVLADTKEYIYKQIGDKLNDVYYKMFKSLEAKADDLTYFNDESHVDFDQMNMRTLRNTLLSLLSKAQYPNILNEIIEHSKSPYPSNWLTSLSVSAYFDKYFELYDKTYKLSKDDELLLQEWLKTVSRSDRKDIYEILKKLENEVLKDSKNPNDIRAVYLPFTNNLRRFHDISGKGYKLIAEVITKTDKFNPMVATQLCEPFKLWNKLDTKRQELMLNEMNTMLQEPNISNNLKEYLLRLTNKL

[14] = Luminescence Cell-Based Dose Response HTS to Identify Inhibitors of 5'UTR Stem-Loop Driven Prion Protein mRNA Translation in H4 Neuroglioblastoma Cells. [Related pubchem assays: 1827 (Project Summary), 1813 (Primary HTS)]; assay type: functional
[15] = cytotoxicity in HEK-293T cells, dose response, cytotoxicity control for BCR NF-kB inhibitor project, luminescence, B-cell screen hits (AID 489021); assay type: functional, cell-based;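 also: HEK-293T cells carrying an NF-kB luciferase reporter; cells exposed to compound for about 14 hours before viability readout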
[16] = inhibitors of SNCA 5'UTR-driven reporter translation, confirmation, H4 neuroglioma cells, luminescence (AID 1988); assay type: functional, cell-based
[17] = inhibitors of firefly luciferase expression or activity, dose response, H4 neuroglioma cells, luminescence (AID 1990); assay type: functional, cell-based
[18] = biological target: G-protein coupled receptor 35 (Homo sapiens, UniProt Q9HC97); experiment: GPR35 antagonists blocking zaprinast-driven arrestin recruitment, primary screen, imaging, U2OS, beta-arrestin-GFP, zaprinast agonist (AID 2058); assay type: functional;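 also: antagonist potency meaning inhibition of agonist-induced arrestin redistribution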
Sequence of G-protein coupled receptor 35 (Q9HC97 whole entry): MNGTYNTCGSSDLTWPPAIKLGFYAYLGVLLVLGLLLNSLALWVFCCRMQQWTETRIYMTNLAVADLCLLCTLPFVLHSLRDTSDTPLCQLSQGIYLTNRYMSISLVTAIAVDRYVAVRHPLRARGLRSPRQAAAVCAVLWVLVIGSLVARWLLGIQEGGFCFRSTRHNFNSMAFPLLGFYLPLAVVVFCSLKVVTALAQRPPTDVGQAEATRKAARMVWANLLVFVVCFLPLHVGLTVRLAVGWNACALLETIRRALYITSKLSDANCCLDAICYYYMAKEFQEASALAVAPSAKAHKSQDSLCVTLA

[19] = Luminescence Cell-Based Dose Retest to Confirm Inhibitors of Cancer Stem Cells. [Related pubchem assays (depositor defined):AID2717, AID2721]; assay type: functional; conditions: Homo sapiens
[20] = test system: HeLa; experiment: HeLa cell cytotoxicity, dose response, cytotoxicity control, 24 h, cherry-picked samples (AID 504726); assay type: functional, cell-based; conditions: Homo sapiens;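 also: potency for cytotoxicity as loss of luminescence signal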
[21] = biological target: Cytochrome P450 2C19 (Homo sapiens, UniProt P33261); experiment: Cytochrome panel assay with activity outcomes. Panel member name: p450-cyp2c19 Compounds with AC50 equal or less than 10 uM are considered active; assay type: functional
Sequence of Cytochrome P450 2C19 (P33261 whole entry): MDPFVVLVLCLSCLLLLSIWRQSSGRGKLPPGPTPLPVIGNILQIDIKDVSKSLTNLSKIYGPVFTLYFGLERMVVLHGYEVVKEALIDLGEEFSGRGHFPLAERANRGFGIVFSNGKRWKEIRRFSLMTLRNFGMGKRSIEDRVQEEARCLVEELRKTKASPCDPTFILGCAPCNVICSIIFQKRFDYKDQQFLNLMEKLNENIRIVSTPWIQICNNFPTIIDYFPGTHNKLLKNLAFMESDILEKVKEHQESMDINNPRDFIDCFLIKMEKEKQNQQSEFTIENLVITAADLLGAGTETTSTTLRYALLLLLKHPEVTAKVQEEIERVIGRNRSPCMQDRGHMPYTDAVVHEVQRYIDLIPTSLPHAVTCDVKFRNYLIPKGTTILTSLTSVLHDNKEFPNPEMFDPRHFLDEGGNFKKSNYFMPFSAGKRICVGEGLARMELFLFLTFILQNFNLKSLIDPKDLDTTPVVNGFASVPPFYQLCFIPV

O=C(Nc1ccc(N2CCCC2)c(Cl)c1)c1ccco1
EC50 [1]: > 50 µM (not active) | EC50 [2]: < 0.2 µM (active)

O=C(Nc1cccc(NC(=O)c2cccs2)c1)c1ccc(Br)cc1
IC50 [3]: 6.65 µM (active) | IC50 [4]: > 111 µM (not active)

COc1cc2c3nnc(-c4ccc(F)cc4)c-3cn(Cc3cccc(F)c3)c2cc1OC
EC50 [5]: 3.59 µM (active)

COc1ccc(O)c(C(=O)CC(=O)c2ccccc2)c1
EC50 [1]: > 50 µM (not active) | EC50 [2]: 5.71 µM (active)

CCOC(=O)c1cnn(-c2ccccc2)c1-n1cccc1C(=O)C(=O)Nc1ccc(F)cc1
EC50 [6]: 6.1 µM (active)

CCOC(=O)CSc1snnc1-c1ccccc1
IC50 [7]: > 50 µM (inactive)

COc1ccc(NC(=O)c2ccc(C(=O)Nc3ccc(OC)cc3OC)cc2)c(OC)c1
IC50 [3]: 19.2 µM (not active) | IC50 [4]: > 111 µM (not active)

CCOc1ccc(-c2cnc3n2CCC3)cc1
CC50 [8]: > 40 µM (active)

c1ccc(-c2noc(CSc3nnnn3-c3ccccc3)n2)cc1
EC50 [6]: 8.32 µM (active)

CCCSc1nnc(NC(=O)Nc2ccccc2)s1
IC50 [9]: > 100 µM (inactive) | EC50 [10]: > 300 µM (not active) | EC50 [11]: > 300 µM (not active) | IC50 [12]: > 100 µM (inactive)

CCN(CC)Cc1c(O)ccc2c(C)c(CC(=O)OC)c(=O)oc12
IC50 [9]: > 100 µM (inactive) | IC50 [13]: 40.4 µM (active) | IC50 [12]: > 100 µM (inactive)

Cc1nc2cc(-c3cccc(F)c3)nn2c(C)c1CCC(=O)N1CCC2(CC1)OCCO2
EC50 [14]: 16.6 µM (active) | IC50 [15]: > 80 µM (inactive) | EC50 [16]: 15.4 µM (active) | EC50 [17]: 10.1 µM (active)

CCOC(=O)C1CCN(c2ncnc3c2cnn3-c2ccc(Cl)cc2)CC1
IC50 [15]: > 80 µM (inactive)

CC(C)CSC1=NSC2=NC(=O)/C(=C\c3coc4ccccc4c3=O)C(=N)N12
IC50 [18]: 23.3 µM (inactive)

CCN1C(=O)c2cccc3c(S(=O)(=O)N4CCC(C)CC4)ccc1c23
IC50 [15]: > 80 µM (inactive)

Cc1cc(C)c2c(c1)/C(=C/C(=O)c1ccc(Br)s1)C(=O)N2
EC50 [5]: 6.24 µM (active) | AC50 [19]: 2.22 µM (active)

Cc1ccc(NC(=O)c2ccc(Cl)c(S(=O)(=O)N3CCc4ccccc43)c2)nc1
AC50 [20]: 342 µM (active)

O=C1NC(=O)N(Cc2ccc(F)cc2)C(=O)/C1=C/Nc1ccc(C(=O)O)cc1
IC50 [7]: > 50 µM (inactive)

Cc1ccc(/C(O)=C/C2=NCC(C)NC2=O)cc1 (centres undefined)
AC50 [21]: inconclusive | EC50 [1]: > 50 µM (not active) | EC50 [2]: > 100 µM (not active)
